Source: PubChem BioAssay (NCI)
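Where inhibition never reached the appropriate level, the endpoint shown equals the highest concentration tested. Otherwise, values were interpolated linearly from a five-concentration, 48-hour dose response in 96-well plates. GI50 marks 50% less growth. TGI is the concentration that stops growth completely.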

Assays:
Test in all cases: NCI tumour cell line growth inhibition, 48 h
A549 NSCLC = system: A549 NSCLC
HOP-62 NSCLC = system: HOP-62 NSCLC
KM20L2 colon = system: KM20L2 colon
LXFL 529 NSCLC = system: LXFL 529 NSCLC
OVCAR-3 ovarian = system: OVCAR-3 ovarian
HT29 colon = system: HT29 colon
SK-MEL-5 melanoma = system: SK-MEL-5 melanoma
TK-10 renal = system: TK-10 renal
BT-549 breast = system: BT-549 breast
HS 578T breast = system: HS 578T breast

Oc1c(C(Nc2cccc3cccnc23)c2ccccc2)ccc2cccnc12 (centres undefined)
TGI (A549 NSCLC): > 100 µM
TGI (HOP-62 NSCLC): > 100 µM
TGI (KM20L2 colon): > 100 µM
TGI (LXFL 529 NSCLC): > 100 µM
TGI (OVCAR-3 ovarian): > 100 µM

O=[N+]([O-])c1cc(C(F)(F)F)cc([N+](=O)[O-])c1CCl
TGI (A549 NSCLC): 24.7 µM
TGI (HOP-62 NSCLC): 30.6 µM
TGI (HT29 colon): 4.03 µM
TGI (KM20L2 colon): 8.72 µM
TGI (LXFL 529 NSCLC): 0.639 µM
TGI (OVCAR-3 ovarian): 10.5 µM
TGI (SK-MEL-5 melanoma): 1.75 µM
TGI (TK-10 renal): 19.5 µM

CCC[CH2][Sn]1([CH2]CCC)[O]C(=O)c2cccnc2[O]1
GI50 (A549 NSCLC): 18.2 µM
TGI (A549 NSCLC): 33 µM
GI50 (HOP-62 NSCLC): 3.95 µM
TGI (HOP-62 NSCLC): 20.9 µM
GI50 (HT29 colon): 5.97 µM
TGI (HT29 colon): 19.5 µM
GI50 (KM20L2 colon): 3.96 µM
TGI (KM20L2 colon): 11.9 µM
GI50 (LXFL 529 NSCLC): 0.849 µM
TGI (LXFL 529 NSCLC): 2.22 µM
GI50 (OVCAR-3 ovarian): 1.91 µM
TGI (OVCAR-3 ovarian): 8.16 µM
GI50 (SK-MEL-5 melanoma): 4.57 µM
TGI (SK-MEL-5 melanoma): 16.8 µM
GI50 (TK-10 renal): 2.73 µM
TGI (TK-10 renal): 8.23 µM

Oc1ccccc1/C=C/c1csnn1
TGI (A549 NSCLC): > 100 µM
TGI (HOP-62 NSCLC): > 100 µM
TGI (HT29 colon): > 100 µM
TGI (KM20L2 colon): > 100 µM
TGI (LXFL 529 NSCLC): > 100 µM
TGI (OVCAR-3 ovarian): > 100 µM
TGI (SK-MEL-5 melanoma): > 100 µM
TGI (TK-10 renal): > 100 µM

OC(c1ccccc1)(c1ccccc1)c1ccncc1
TGI (A549 NSCLC): > 100 µM
TGI (HOP-62 NSCLC): > 100 µM
TGI (HT29 colon): > 100 µM
TGI (KM20L2 colon): > 100 µM
TGI (LXFL 529 NSCLC): > 100 µM
TGI (OVCAR-3 ovarian): > 100 µM
TGI (SK-MEL-5 melanoma): > 100 µM
TGI (TK-10 renal): > 100 µM

CCOC(=O)N1CCN(C=S)CC1
TGI (A549 NSCLC): > 100 µM
TGI (HOP-62 NSCLC): > 100 µM
TGI (HT29 colon): > 100 µM
TGI (KM20L2 colon): > 100 µM
TGI (LXFL 529 NSCLC): > 100 µM
TGI (OVCAR-3 ovarian): > 100 µM
TGI (SK-MEL-5 melanoma): > 100 µM
TGI (TK-10 renal): > 100 µM

CP1(=O)CCCCC1
TGI (A549 NSCLC): > 100 µM
TGI (HOP-62 NSCLC): > 100 µM
TGI (HT29 colon): > 100 µM
TGI (KM20L2 colon): > 100 µM
TGI (LXFL 529 NSCLC): > 100 µM
TGI (OVCAR-3 ovarian): > 100 µM
TGI (SK-MEL-5 melanoma): > 100 µM
TGI (TK-10 renal): > 100 µM

CC(C)C1CC[C@@H](C)C[C@@]1(O)CC(N)=O (some centres undefined)
TGI (A549 NSCLC): > 100 µM
TGI (HT29 colon): > 100 µM
TGI (KM20L2 colon): > 100 µM
TGI (LXFL 529 NSCLC): > 100 µM
TGI (OVCAR-3 ovarian): > 100 µM
TGI (SK-MEL-5 melanoma): > 100 µM
TGI (TK-10 renal): > 100 µM

CN(C)CC/C(=N\Nc1ccc([N+](=O)[O-])cc1)c1ccccc1
TGI (A549 NSCLC): 26.8 µM
TGI (HOP-62 NSCLC): 28.5 µM
TGI (HT29 colon): 21.2 µM
TGI (KM20L2 colon): 15.2 µM
TGI (LXFL 529 NSCLC): 19.3 µM
TGI (OVCAR-3 ovarian): 31.2 µM
TGI (SK-MEL-5 melanoma): 28.5 µM
TGI (TK-10 renal): 15.3 µM

CCS(CC)(CC)CC1CCCC2=CCC(P(=O)(c3ccccc3)c3ccccc3)CC21 (centres undefined)
TGI (A549 NSCLC): 18 µM
TGI (HOP-62 NSCLC): 32 µM
TGI (HT29 colon): 22.8 µM
TGI (KM20L2 colon): 25.2 µM
TGI (LXFL 529 NSCLC): 22.4 µM
TGI (OVCAR-3 ovarian): 30.5 µM
TGI (SK-MEL-5 melanoma): 29.8 µM
TGI (TK-10 renal): 27 µM

O=C(O)C(SC(=S)c1ccc(C(=S)SC(C(=O)O)c2ccccc2)cc1)c1ccccc1 (centres undefined)
TGI (A549 NSCLC): > 100 µM
TGI (HOP-62 NSCLC): > 100 µM
TGI (HT29 colon): > 100 µM
TGI (LXFL 529 NSCLC): > 100 µM
TGI (OVCAR-3 ovarian): > 100 µM
TGI (SK-MEL-5 melanoma): > 100 µM
TGI (TK-10 renal): > 100 µM

COC1CC(OS(=O)(=O)c2ccc([N+](=O)[O-])cc2)C(OC(=O)c2ccccc2)C(C)O1 (centres undefined)
TGI (A549 NSCLC): > 100 µM
TGI (HOP-62 NSCLC): > 100 µM
TGI (HT29 colon): > 100 µM
TGI (KM20L2 colon): > 100 µM
TGI (LXFL 529 NSCLC): > 100 µM
TGI (OVCAR-3 ovarian): > 100 µM
TGI (SK-MEL-5 melanoma): > 100 µM
TGI (TK-10 renal): > 100 µM

Cc1ccc2nc(NC(=O)C(=O)C(C#N)c3nc4ccccc4s3)sc2c1 (centres undefined)
TGI (HOP-62 NSCLC): 31.9 µM
TGI (HT29 colon): > 100 µM
TGI (KM20L2 colon): > 100 µM
TGI (LXFL 529 NSCLC): > 100 µM
TGI (OVCAR-3 ovarian): 56.3 µM
TGI (SK-MEL-5 melanoma): 45.7 µM
TGI (TK-10 renal): 85.3 µM

CCOc1ccccc1N1C(=O)C(=O)C(c2nc3ccccc3o2)C(=O)C1=O
TGI (A549 NSCLC): > 100 µM
TGI (HOP-62 NSCLC): > 100 µM
TGI (HT29 colon): > 100 µM
TGI (KM20L2 colon): > 100 µM
TGI (LXFL 529 NSCLC): > 100 µM
TGI (OVCAR-3 ovarian): > 100 µM
TGI (SK-MEL-5 melanoma): > 100 µM
TGI (TK-10 renal): > 100 µM

C=C1CCC2C3(C)COC(c4ccc(N(C)C)cc4)OC3CCC2(C)C1C/C=C1/C(=O)OCC1O (centres undefined)
GI50 (A549 NSCLC): 4.73 µM
TGI (A549 NSCLC): 17.3 µM
GI50 (BT-549 breast): 2.95 µM
TGI (BT-549 breast): 11.1 µM
GI50 (HOP-62 NSCLC): 18.4 µM
TGI (HOP-62 NSCLC): 33.3 µM
GI50 (HS 578T breast): 2.13 µM
TGI (HS 578T breast): 6.69 µM
GI50 (HT29 colon): 2.43 µM
TGI (HT29 colon): 6.19 µM
GI50 (OVCAR-3 ovarian): 1.96 µM
TGI (OVCAR-3 ovarian): 3.98 µM
GI50 (SK-MEL-5 melanoma): 7.2 µM
TGI (SK-MEL-5 melanoma): 20.3 µM
GI50 (TK-10 renal): 8 µM
TGI (TK-10 renal): 21 µM

COc1cc(/C=C2/C(=O)N(C(=O)OCC(C)C)C(Cc3cc(OC)c(OC)c(C)c3OC)C(=O)N2Cc2ccccc2)c(OC)c(C)c1OC (centres undefined)
TGI (A549 NSCLC): > 100 µM
TGI (HOP-62 NSCLC): > 100 µM
TGI (HT29 colon): > 100 µM
TGI (KM20L2 colon): > 100 µM
TGI (LXFL 529 NSCLC): > 100 µM
TGI (OVCAR-3 ovarian): > 100 µM
TGI (SK-MEL-5 melanoma): > 100 µM
TGI (TK-10 renal): > 100 µM

COc1ccc2cc(C(=O)/C=C/c3ccc(Cl)cc3Cl)ccc2c1
GI50 (A549 NSCLC): 14.1 µM
TGI (A549 NSCLC): 31.9 µM
GI50 (BT-549 breast): 0.963 µM
TGI (BT-549 breast): 4.6 µM
GI50 (HOP-62 NSCLC): 24 µM
TGI (HOP-62 NSCLC): 50.8 µM
GI50 (HS 578T breast): 28.1 µM
TGI (HS 578T breast): 73.7 µM
GI50 (HT29 colon): 6.63 µM
TGI (HT29 colon): 51.3 µM
GI50 (OVCAR-3 ovarian): 16.8 µM
TGI (OVCAR-3 ovarian): 43.9 µM
GI50 (SK-MEL-5 melanoma): 12.1 µM
TGI (SK-MEL-5 melanoma): 29.9 µM
GI50 (TK-10 renal): 27.7 µM
TGI (TK-10 renal): > 100 µM

CN1C(=Nc2ccccc2)SC1=Nc1ccccc1
TGI (A549 NSCLC): > 100 µM
TGI (HOP-62 NSCLC): > 100 µM
TGI (HT29 colon): > 100 µM
TGI (LXFL 529 NSCLC): > 100 µM
TGI (OVCAR-3 ovarian): > 100 µM
TGI (SK-MEL-5 melanoma): > 100 µM
TGI (TK-10 renal): > 100 µM

c1ccc2[nH]c(-c3ccc(-c4nccc5c4[nH]c4ccccc45)cc3)nc2c1
GI50 (A549 NSCLC): 4.15 µM
TGI (A549 NSCLC): 18.6 µM
GI50 (BT-549 breast): 2.12 µM
TGI (BT-549 breast): 5.42 µM
GI50 (HOP-62 NSCLC): 2.8 µM
TGI (HOP-62 NSCLC): 10.8 µM
GI50 (HS 578T breast): 2.23 µM
TGI (HS 578T breast): 5.93 µM
GI50 (HT29 colon): 2.19 µM
TGI (HT29 colon): 4.43 µM
GI50 (OVCAR-3 ovarian): 1.8 µM
TGI (OVCAR-3 ovarian): 3.64 µM
GI50 (SK-MEL-5 melanoma): 3.69 µM
TGI (SK-MEL-5 melanoma): 14.3 µM
GI50 (TK-10 renal): 2.07 µM
TGI (TK-10 renal): 4.59 µM

CCc1cc(C(=O)OC)cn1C(=N)c1ccc(Cl)cc1
TGI (A549 NSCLC): > 100 µM
TGI (HOP-62 NSCLC): > 100 µM
TGI (HT29 colon): > 100 µM
TGI (KM20L2 colon): > 100 µM
TGI (LXFL 529 NSCLC): > 100 µM
TGI (OVCAR-3 ovarian): > 100 µM
TGI (SK-MEL-5 melanoma): > 100 µM
TGI (TK-10 renal): > 100 µM

CCN(CC)c1c(C(=O)/C=C/c2ccc(OC)cc2)c(-c2ccccc2)nn(C)c1=O
TGI (A549 NSCLC): 81 µM
TGI (HOP-62 NSCLC): > 100 µM
TGI (HT29 colon): 41.3 µM
TGI (KM20L2 colon): 33.1 µM
TGI (LXFL 529 NSCLC): > 100 µM
TGI (SK-MEL-5 melanoma): 21.5 µM
TGI (TK-10 renal): 99.9 µM

COc1ccc2n[se]nc2c1
TGI (A549 NSCLC): > 100 µM
TGI (HT29 colon): > 100 µM
TGI (KM20L2 colon): > 100 µM
TGI (LXFL 529 NSCLC): > 100 µM
TGI (SK-MEL-5 melanoma): > 100 µM
TGI (TK-10 renal): > 100 µM

C=C(C)C(=O)O[C@H]1CC(=C)[C@@H]2C[C@H](O)[C@](O)(CCl)[C@@H]2[C@H]2OC(=O)C(=C)[C@@H]21
GI50 (A549 NSCLC): 18.4 µM
TGI (A549 NSCLC): 38.2 µM
GI50 (BT-549 breast): 1.84 µM
TGI (BT-549 breast): 3.45 µM
GI50 (HOP-62 NSCLC): 10.5 µM
TGI (HOP-62 NSCLC): 23.3 µM
GI50 (HS 578T breast): 11.6 µM
TGI (HS 578T breast): 46.1 µM
GI50 (HT29 colon): 2.89 µM
TGI (HT29 colon): 7.42 µM
GI50 (OVCAR-3 ovarian): 1.81 µM
TGI (OVCAR-3 ovarian): 4.38 µM
GI50 (SK-MEL-5 melanoma): 8.66 µM
TGI (SK-MEL-5 melanoma): 23.4 µM
GI50 (TK-10 renal): 0.512 µM
TGI (TK-10 renal): 1.82 µM
